Measurements published in patent US12577245B2, “Sulfonyl benzamide derivatives as Bcl-2 inhibitors” (ASCENTAGE PHARMA (SUZHOU) CO., LTD., priority 2021, dated 2026).

Biological target: Bcl-2 G101V (Homo sapiens, UniProt P10415, G101V)
Experiment: Bcl-2 G101V inhibition, fluorescence polarization (Flu-BIM tracer) binding assay
Conditions: FP; 20 nM Bcl2, 5 nM Flu-BIM, 1 h incubation; read-out: Bcl-2 G101V (FP)

Compound: CC1(C)CCC(CN2CCN(c3ccc(C(=O)NS(=O)(=O)c4ccc(NC[C@H]5COCCO5)c([N+](=O)[O-])c4)c(Oc4cnc5[nH]ccc5c4)c3)CC2)=C(c2cc(-c3ccc(C(F)(F)F)cc3)cs2)C1 [Example 40, (S)—N-((4-(((1,4-dioxan-2-yl)methyl)amino)-3-nitrophenyl)sulfonyl)-2-((1H-pyrrolo[2,3-b]pyridin-5-yl)oxy)-4-(4-((4,4-dimethyl-2-(4-(4-(trifluoromethyl)phenyl)thiophen-2-yl)cyclohex-1-en-1-yl)methyl)piperazin-1-yl)benzamide]
- IC50: 43.4 nM

Compound: CC1(C)CCC(CN2CCN(c3ccc(C(=O)NS(=O)(=O)c4ccc(NC[C@H]5CC[C@](C)(O)CC5)c([N+](=O)[O-])c4)c(Oc4cnc5[nH]ccc5c4)c3)CC2)=C(c2cc(-c3ccc(C(F)(F)F)cc3)cs2)C1 [Example 41, 2-((1H-pyrrolo[2,3-b]pyridin-5-yl)oxy)-4-(4-((4,4-dimethyl-2-(4-(4-(trifluoromethyl)phenyl)thiophen-2-yl)cyclohex-1-en-1-yl)methyl)piperazin-1-yl)-N-((4-((((1r,4r)-4-hydroxy-4-methylcyclohexyl)methyl)amino)-3-nitrophenyl)sulfonyl)benzamide]
- IC50: 34.4 nM

Compound: CC1(C)CCC(CN2CCN(c3ccc(C(=O)NS(=O)(=O)c4ccc(NC[C@H]5COCCO5)c([N+](=O)[O-])c4)c(Oc4cnc5[nH]ccc5c4)c3)CC2)=C(c2cc(-c3ccc(F)cc3F)cs2)C1 [Example 42, (S)—N-((4-(((1,4-dioxan-2-yl)methyl)amino)-3-nitrophenyl)sulfonyl)-2-((1H-pyrrolo[2,3-b]pyridin-5-yl)oxy)-4-(4-((2-(4-(2,4-difluorophenyl)thiophen-2-yl)-4,4-dimethylcyclohex-1-en-1-yl)methyl)piperazin-1-yl)benzamide]
- IC50: 50.7 nM

Compound: CC1(C)CCC(CN2CCN(c3ccc(C(=O)NS(=O)(=O)c4ccc(NC[C@H]5CC[C@](C)(O)CC5)c([N+](=O)[O-])c4)c(Oc4cnc5[nH]ccc5c4)c3)CC2)=C(c2cc(-c3ccc(F)cc3F)cs2)C1 [Example 43, 2-((1H-pyrrolo[2,3-b]pyridin-5-yl)oxy)-4-(4-((2-(4-(2,4-difluorophenyl)thiophen-2-yl)-4,4-dimethylcyclohex-1-en-1-yl)methyl)piperazin-1-yl)-N-((4-((((1r,4r)-4-hydroxy-4-methylcyclohexyl)methyl)amino)-3-nitrophenyl)sulfonyl)benzamide]
- IC50: 33.7 nM

Compound: CC1(C)CCC(CN2CCN(c3ccc(C(=O)NS(=O)(=O)c4ccc(NC[C@H]5COCCO5)c([N+](=O)[O-])c4)c(Oc4cnc5[nH]ccc5c4)c3)CC2)=C(c2cc(-c3ccc(Cl)cc3F)cs2)C1 [Example 44, (S)—N-((4-(((1,4-dioxan-2-yl)methyl)amino)-3-nitrophenyl)sulfonyl)-2-((1H-pyrrolo[2,3-b]pyridin-5-yl)oxy)-4-(4-((2-(4-(4-chloro-2-fluorophenyl)thiophen-2-yl)-4,4-dimethylcyclohex-1-en-1-yl)methyl)piperazin-1-yl)benzamide]
- IC50: 46.3 nM

Compound: CC1(C)CCC(CN2CCN(c3ccc(C(=O)NS(=O)(=O)c4ccc(NC[C@H]5CC[C@](C)(O)CC5)c([N+](=O)[O-])c4)c(Oc4cnc5[nH]ccc5c4)c3)CC2)=C(c2cc(-c3cc(F)c(F)c(F)c3)cs2)C1 [Example 45, 2-((1H-pyrrolo[2,3-b]pyridin-5-yl)oxy)-4-(4-((4,4-dimethyl-2-(4-(3,4,5-trifluorophenyl)thiophen-2-yl)cyclohex-1-en-1-yl)methyl)piperazin-1-yl)-N-((4-((((1r,4r)-4-hydroxy-4-methylcyclohexyl)methyl)amino)-3-nitrophenyl)sulfonyl)benzamide]
- IC50: 49 nM

Compound: CC1(C)CCC(CN2CCN(c3ccc(C(=O)NS(=O)(=O)c4ccc(NC[C@H]5CC[C@](C)(O)CC5)c([N+](=O)[O-])c4)c(Oc4cnc5[nH]ccc5c4)c3)CC2)=C(c2cc(-c3ccc(F)c(F)c3F)cs2)C1 [Example 46, 2-((1H-pyrrolo[2,3-b]pyridin-5-yl)oxy)-4-(4-((4,4-dimethyl-2-(4-(2,3,4-trifluorophenyl)thiophen-2-yl)cyclohex-1-en-1-yl)methyl)piperazin-1-yl)-N-((4-((((1r,4r)-4-hydroxy-4-methylcyclohexyl)methyl)amino)-3-nitrophenyl)sulfonyl)benzamide]
- IC50: 43.5 nM

Compound: CC1(C)CCC(CN2CCN(c3ccc(C(=O)NS(=O)(=O)c4ccc(NC[C@H]5COCCO5)c([N+](=O)[O-])c4)c(Oc4cnc5[nH]ccc5c4)c3)CC2)=C(c2cc(-c3ccc(C(F)F)cc3)cs2)C1 [Example 48, (S)—N-((4-(((1,4-dioxan-2-yl)methyl)amino)-3-nitrophenyl)sulfonyl)-2-((1H-pyrrolo[2,3-b]pyridin-5-yl)oxy)-4-(4-((2-(4-(4-(difluoromethyl)phenyl)thiophen-2-yl)-4,4-dimethylcyclohex-1-en-1-yl)methyl)piperazin-1-yl)benzamide]
- IC50: 36.7 nM

Compound: CC1(C)CCC(CN2CCN(c3ccc(C(=O)NS(=O)(=O)c4ccc(NC[C@H]5CC[C@](C)(O)CC5)c([N+](=O)[O-])c4)c(Oc4cnc5[nH]ccc5c4)c3)CC2)=C(c2cc(-c3ccc(C(F)F)cc3)cs2)C1 [Example 49, 2-((1H-pyrrolo[2,3-b]pyridin-5-yl)oxy)-4-(4-((2-(4-(4-(difluoromethyl)phenyl)thiophen-2-yl)-4,4-dimethylcyclohex-1-en-1-yl)methyl)piperazin-1-yl)-N-((4-((((1r,4r)-4-hydroxy-4-methylcyclohexyl)methyl)amino)-3-nitrophenyl)sulfonyl)benzamide]
- IC50: 43.6 nM

Compound: CC1(C)CCC(CN2CCN(c3ccc(C(=O)NS(=O)(=O)c4ccc(NC[C@H]5COCCO5)c([N+](=O)[O-])c4)c(Oc4cnc5[nH]ccc5c4)c3)CC2)=C(c2cc(-c3ccc(F)c(F)c3)cs2)C1 [Example 50, (S)—N-((4-(((1,4-dioxan-2-yl)methyl)amino)-3-nitrophenyl)sulfonyl)-2-((1H-pyrrolo[2,3-b]pyridin-5-yl)oxy)-4-(4-((2-(4-(3,4-difluorophenyl)thiophen-2-yl)-4,4-dimethylcyclohex-1-en-1-yl)methyl)piperazin-1-yl)benzamide]
- IC50: 42.7 nM

Compound: CC1(C)CCC(CN2CCN(c3ccc(C(=O)NS(=O)(=O)c4ccc(NC[C@H]5CC[C@](C)(O)CC5)c([N+](=O)[O-])c4)c(Oc4cnc5[nH]ccc5c4)c3)CC2)=C(c2cc(-c3ccc(F)c(F)c3)cs2)C1 [Example 51, 2-((1H-pyrrolo[2,3-b]pyridin-5-yl)oxy)-4-(4-((2-(4-(3,4-difluorophenyl)thiophen-2-yl)-4,4-dimethylcyclohex-1-en-1-yl)methyl)piperazin-1-yl)-N-((4-((((1r,4r)-4-hydroxy-4-methylcyclohexyl)methyl)amino)-3-nitrophenyl)sulfonyl)benzamide]
- IC50: 45.5 nM

Compound: CC1(C)CCC(CN2CCN(c3ccc(C(=O)NS(=O)(=O)c4ccc(NC[C@H]5CC[C@](C)(O)CC5)c([N+](=O)[O-])c4)c(Oc4cnc5[nH]ccc5c4)c3)CC2)=C(c2cc(-c3cc(F)c(F)cc3F)cs2)C1 [Example 53, 2-((1H-pyrrolo[2,3-b]pyridin-5-yl)oxy)-4-(4-((4,4-dimethyl-2-(4-(2,4,5-trifluorophenyl)thiophen-2-yl)cyclohex-1-en-1-yl)methyl)piperazin-1-yl)-N-((4-((((1r,4r)-4-hydroxy-4-methylcyclohexyl)methyl)amino)-3-nitrophenyl)sulfonyl)benzamide]
- IC50: 36.6 nM

Compound: CC1(C)CCC(CN2CCN(c3ccc(C(=O)NS(=O)(=O)c4ccc(NC[C@H]5CC[C@](C)(O)CC5)c([N+](=O)[O-])c4)c(Oc4cnc5[nH]ccc5c4)c3)CC2)=C(c2cc(-c3c(F)ccc(F)c3F)cs2)C1 [Example 54, 2-((1H-pyrrolo[2,3-b]pyridin-5-yl)oxy)-4-(4-((4,4-dimethyl-2-(4-(2,3,6-trifluorophenyl)thiophen-2-yl)cyclohex-1-en-1-yl)methyl)piperazin-1-yl)-N-((4-((((1r,4r)-4-hydroxy-4-methylcyclohexyl)methyl)amino)-3-nitrophenyl)sulfonyl)benzamide]
- IC50: 33.2 nM

Compound: CC1(C)CCC(CN2CCN(c3ccc(C(=O)NS(=O)(=O)c4ccc(NC[C@H]5CC[C@](C)(O)CC5)c([N+](=O)[O-])c4)c(Oc4cnc5[nH]ccc5c4)c3)CC2)=C(c2cc(-c3cc(F)cc(C#N)c3)cs2)C1 [Example 55, 2-((1H-pyrrolo[2,3-b]pyridin-5-yl)oxy)-4-(4-((2-(4-(3-cyano-5-fluorophenyl)thiophen-2-yl)-4,4-dimethylcyclohex-1-en-1-yl)methyl)piperazin-1-yl)-N-((4-((((1r,4r)-4-hydroxy-4-methylcyclohexyl)methyl)amino)-3-nitrophenyl)sulfonyl)benzamide]
- IC50: 47.5 nM

Compound: CC1(C)CCC(CN2CCN(c3ccc(C(=O)NS(=O)(=O)c4ccc(NC[C@H]5CC[C@](C)(O)CC5)c([N+](=O)[O-])c4)c(Oc4cnc5[nH]ccc5c4)c3)CC2)=C(c2cc(-c3ccc(C(C)(C)C#N)cc3)cs2)C1 [Example 56, 2-((1H-pyrrolo[2,3-b]pyridin-5-yl)oxy)-4-(4-((2-(4-(4-(2-cyanopropan-2-yl)phenyl)thiophen-2-yl)-4,4-dimethylcyclohex-1-en-1-yl)methyl)piperazin-1-yl)-N-((4-((((1r,4r)-4-hydroxy-4-methylcyclohexyl)methyl)amino)-3-nitrophenyl)sulfonyl)benzamide]
- IC50: 27.6 nM

Compound: CN(C)c1ccccc1-c1csc(C2=C(CN3CCN(c4ccc(C(=O)NS(=O)(=O)c5ccc(NC[C@H]6COCCO6)c([N+](=O)[O-])c5)c(Oc5cnc6[nH]ccc6c5)c4)CC3)CCC(C)(C)C2)c1 [Example 58, (S)—N-((4-(((1,4-dioxan-2-yl)methyl)amino)-3-nitrophenyl)sulfonyl)-2-((1H-pyrrolo[2,3-b]pyridin-5-yl)oxy)-4-(4-((2-(4-(2-(dimethylamino)phenyl)thiophen-2-yl)-4,4-dimethylcyclohex-1-en-1-yl)methyl)piperazin-1-yl)benzamide]
- IC50: 34.1 nM
